Like-named read-outs stand apart in the source and are kept apart here. Where a SMILES comes first, the peptide text is derived from it. Bridges are numbered along the chain shown (N, C = ends).
Conditions: for LOAEL: i.v.
[1] = female rats, 5 mg/kg/day, Day 8, median
[2] = female rats, 10 mg/kg/day, Day 8, median
[3] = female rats, 20 mg/kg, Day 2, median
[4] = male rats, 5 mg/kg/day, Day 8, median
[5] = male rats, 10 mg/kg/day, Day 8, median
[6] = male rats, 20 mg/kg, Day 2, median

## CC[C@H](C)[C@@H]1NC(=O)[C@@H]2CSSC[C@H](NC(=O)[C@H](CCCNC(=N)N)NC(=O)[C@@H]3CSSC[C@H](NC1=O)C(=O)N[C@@H]([C@@H](C)O)C(=O)N[C@@H](CCCNC(=N)N)C(=O)NCC(=O)N[C@@H](Cc1ccccc1)C(=O)N3)C(=O)N[C@@H](CC(C)C)C(=O)N[C@H]1CSSC[C@H](NC(=O)[C@H](C(C)C)NC(=O)CNC(=O)[C@H](CCCNC(=N)N)NC(=O)[C@H](CCCNC(=N)N)NC1=O)C(=O)N[C@@H](CCCNC(=N)N)C(=O)N2 [Peptide 1] (cyclo(GFCRCLCRRGVCRCICTR); disulfide 3-16, 5-14, 7-12)
Sprague-Dawley rats, study duration 7 days (Table 8)
  LOAEL: 20 mg/kg/day
Female rats, 5 mg/kg dose group, found dead Day 15
  mortality (determined unrelated to treatment): 1 out of 16
[1]
  A/G: 2.10
  ALP: 92.0 U/L
  ALT: 35.0 U/L
  APTT: 10.6 s
  AST: 139.0 U/L
  Albumin: 3.9 g/dL
  Basophils: 0.3%
  Basophils absolute: 0.02 10^3/mm^3
  CK: 792 U/L
  Calcium: 9.80 mg/dL
  Chloride: 105.0 mmol/L
  Cholesterol: 55.0 mg/dL
  Creatinine: 0.3 mg/dL
  Eosinophils: 3.6%
  Eosinophils absolute: 0.30 10^3/mm^3
  Fibrinogen: 223 mg/dL
  GGT: 0.0 U/L
  Globulin: 1.8 g/dL
  Glucose: 97 mg/dL
  HDW: 2.37 g/dL
  Hct: 40.5%
  Hemoglobin: 13.5 g/dL
  K: 4.9 mmol/L
  LUC: 0.3%
  LUC absolute: 0.02 10^3/mm^3
  Lymphocyte absolute: 4.78 10^3/mm^3
  Lymphocytes: 68.1%
  MCH: 19.1 pg
  MCHC: 33.4 g/dL
  MCV: 57.9 fL
  Monocyte absolute: 0.17 10^3/mm^3
  Monocytes: 2.6%
  Na: 143 mmol/L
  Neutrophil absolute: 1.33 10^3/mm^3
  Neutrophils: 26.7%
  PT: 16.3 s
  Phos: 7.3 mg/dL
  Platelets: 801 10^3/mm^3
  RBC: 6.88 10^6/mm^3
  RDW: 12.7%
  Reticulocytes: 3.9%
  Reticulocytes absolute: 256.7 10^3/mm^3
  T-Bil: 0.00 mg/dL
  TP: 5.8 g/dL
  Triglycerides: 25 mg/dL
  Urea N: 20 mg/dL
  WBC: 6.50 10^3/mm^3
[2]
  A/G: 2.15
  ALP: 109.5 U/L
  ALT: 32.5 U/L
  APTT: 10.9 s
  AST: 122.0 U/L
  Albumin: 3.9 g/dL
  Basophils: 0.4%
  Basophils absolute: 0.04 10^3/mm^3
  CK: 474 U/L
  Calcium: 9.95 mg/dL
  Chloride: 105.0 mmol/L
  Cholesterol: 55.0 mg/dL
  Creatinine: 0.3 mg/dL
  Eosinophils: 3.3%
  Eosinophils absolute: 0.33 10^3/mm^3
  Fibrinogen: 283 mg/dL
  GGT: 0.0 U/L
  Globulin: 1.8 g/dL
  Glucose: 99 mg/dL
  HDW: 2.45 g/dL
  Hct: 41.2%
  Hemoglobin: 13.7 g/dL
  K: 5.05 mmol/L
  LUC: 0.35%
  LUC absolute: 0.04 10^3/mm^3
  Lymphocyte absolute: 7.13 10^3/mm^3
  Lymphocytes: 72.0%
  MCH: 19.0 pg
  MCHC: 33.3 g/dL
  MCV: 57.3 fL
  Monocyte absolute: 0.39 10^3/mm^3
  Monocytes: 3.5%
  Na: 142.5 mmol/L
  Neutrophil absolute: 2.18 10^3/mm^3
  Neutrophils: 19.9%
  PT: 17.1 s
  Phos: 7.05 mg/dL
  Platelets: 939 10^3/mm^3
  RBC: 7.21 10^6/mm^3
  RDW: 13.0%
  Reticulocytes: 4.1%
  Reticulocytes absolute: 277.3 10^3/mm^3
  T-Bil: 0.00 mg/dL
  TP: 5.7 g/dL
  Triglycerides: 26 mg/dL
  Urea N: 21 mg/dL
  WBC: 10.75 10^3/mm^3
[3]
  A/G: 3.00
  ALP: 142.0 U/L
  ALT: 62.0 U/L
  APTT: 29.2 s
  AST: 397.0 U/L
  Albumin: 3.0 g/dL
  Basophils: 0.5%
  Basophils absolute: 0.06 10^3/mm^3
  CK: 1,506 U/L
  Calcium: 10.30 mg/dL
  Chloride: 104.0 mmol/L
  Cholesterol: 52.0 mg/dL
  Creatinine: 0.5 mg/dL
  Eosinophils: 1.5%
  Eosinophils absolute: 0.13 10^3/mm^3
  Fibrinogen: 83 mg/dL
  GGT: 4.0 U/L
  Globulin: 1.0 g/dL
  Glucose: 218 mg/dL
  HDW: 2.37 g/dL
  Hct: 46.9%
  Hemoglobin: 15.2 g/dL
  K: 4.9 mmol/L
  LUC: 0.5%
  LUC absolute: 0.05 10^3/mm^3
  Lymphocyte absolute: 5.56 10^3/mm^3
  Lymphocytes: 60.5%
  MCH: 19.6 pg
  MCHC: 32.3 g/dL
  MCV: 61.0 fL
  Monocyte absolute: 0.33 10^3/mm^3
  Monocytes: 3.8%
  Na: 141 mmol/L
  Neutrophil absolute: 2.55 10^3/mm^3
  Neutrophils: 33.6%
  PT: 23.5 s
  Phos: 9.3 mg/dL
  Platelets: 604 10^3/mm^3
  RBC: 7.63 10^6/mm^3
  RDW: 12.2%
  Reticulocytes: 5.3%
  Reticulocytes absolute: 326.0 10^3/mm^3
  T-Bil: 0.00 mg/dL
  TP: 3.90 g/dL
  Triglycerides: 106 mg/dL
  Urea N: 20 mg/dL
  WBC: 8.15 10^3/mm^3
Female rats, 5 and 10 mg/kg/day, end of treatment, non-adverse, recoverable
  microscopic findings, liver: minimal to mild liver necrosis
Male and female rats, 20 mg/kg
  microscopic findings, adrenal: Mild to severe adrenal necrosis
Male and female rats, 20 mg/kg dosing group
  body weight: significant decreases in body weights
[4]
  A/G: 2.2
  ALP: 212.0 U/L
  ALT: 40.0 U/L
  APTT: 14.8 s
  AST: 133.0 U/L
  Albumin: 3.8 g/dL
  Basophils: 0.3%
  Basophils absolute: 0.03 10^3/mm^3
  CK: 766 U/L
  Calcium: 9.75 mg/dL
  Chloride: 104.5 mmol/L
  Cholesterol: 70.5 mg/dL
  Creatinine: 0.2 mg/dL
  Eosinophils: 3.9%
  Eosinophils absolute: 0.37 10^3/mm^3
  Fibrinogen: 263 mg/dL
  GGT: 0.0 U/L
  Globulin: 1.7 g/dL
  Glucose: 73 mg/dL
  HDW: 2.30 g/dL
  Hct: 43.8%
  Hemoglobin: 14.1 g/dL
  K: 5.15 mmol/L
  LUC: 0.3%
  LUC absolute: 0.03 10^3/mm^3
  Lymphocyte absolute: 6.03 10^3/mm^3
  Lymphocytes: 71.8%
  MCH: 20.0 pg
  MCHC: 32.1 g/dL
  MCV: 61.8 fL
  Monocyte absolute: 0.22 10^3/mm^3
  Monocytes: 2.9%
  Na: 144 mmol/L
  Neutrophil absolute: 2.04 10^3/mm^3
  Neutrophils: 20.2%
  PT: 16.0 s
  Phos: 8.45 mg/dL
  Platelets: 1,052 10^3/mm^3
  RBC: 7.06 10^6/mm^3
  RDW: 14.0%
  Reticulocytes: 5.2%
  Reticulocytes absolute: 359.7 10^3/mm^3
  T-Bil: 0.00 mg/dL
  TP: 5.5 g/dL
  Triglycerides: 37 mg/dL
  Urea N: 16.5 mg/dL
  WBC: 8.40 10^3/mm^3
[5]
  A/G: 2.35
  ALP: 212.5 U/L
  ALT: 32.5 U/L
  APTT: 14.6 s
  AST: 113.5 U/L
  Albumin: 3.7 g/dL
  Basophils: 0.3%
  Basophils absolute: 0.03 10^3/mm^3
  CK: 613 U/L
  Calcium: 9.70 mg/dL
  Chloride: 105.0 mmol/L
  Cholesterol: 66.0 mg/dL
  Creatinine: 0.3 mg/dL
  Eosinophils: 3.0%
  Eosinophils absolute: 0.31 10^3/mm^3
  Fibrinogen: 261 mg/dL
  GGT: 0.0 U/L
  Globulin: 1.6 g/dL
  Glucose: 83 mg/dL
  HDW: 2.20 g/dL
  Hct: 43.7%
  Hemoglobin: 14.2 g/dL
  K: 5.1 mmol/L
  LUC: 0.3%
  LUC absolute: 0.03 10^3/mm^3
  Lymphocyte absolute: 6.69 10^3/mm^3
  Lymphocytes: 70.9%
  MCH: 20.2 pg
  MCHC: 32.4 g/dL
  MCV: 62.6 fL
  Monocyte absolute: 0.28 10^3/mm^3
  Monocytes: 2.7%
  Na: 144 mmol/L
  Neutrophil absolute: 1.85 10^3/mm^3
  Neutrophils: 22.6%
  PT: 17.5 s
  Phos: 8.6 mg/dL
  Platelets: 1,086 10^3/mm^3
  RBC: 7.06 10^6/mm^3
  RDW: 13.1%
  Reticulocytes: 4.6%
  Reticulocytes absolute: 314.2 10^3/mm^3
  T-Bil: 0.00 mg/dL
  TP: 5.35 g/dL
  Triglycerides: 29 mg/dL
  Urea N: 19.0 mg/dL
  WBC: 10.05 10^3/mm^3
[6]
  A/G: 2.70
  ALP: 232.0 U/L
  ALT: 74.0 U/L
  APTT: 18.5 s
  AST: 245.0 U/L
  Albumin: 2.7 g/dL
  Basophils: 0.2%
  Basophils absolute: 0.03 10^3/mm^3
  CK: 707 U/L
  Calcium: 9.40 mg/dL
  Chloride: 101.0 mmol/L
  Cholesterol: 67.0 mg/dL
  Creatinine: 0.4 mg/dL
  Eosinophils: 1.1%
  Eosinophils absolute: 0.15 10^3/mm^3
  Fibrinogen: 98 mg/dL
  GGT: 0.0 U/L
  Globulin: 1.0 g/dL
  Glucose: 175 mg/dL
  HDW: 2.44 g/dL
  Hct: 37.3%
  Hemoglobin: 12.1 g/dL
  K: 5.1 mmol/L
  LUC: 0.5%
  LUC absolute: 0.07 10^3/mm^3
  Lymphocyte absolute: 4.24 10^3/mm^3
  Lymphocytes: 30.9%
  MCH: 20.0 pg
  MCHC: 31.8 g/dL
  MCV: 62.5 fL
  Monocyte absolute: 0.93 10^3/mm^3
  Monocytes: 8.1%
  Na: 140 mmol/L
  Neutrophil absolute: 8.40 10^3/mm^3
  Neutrophils: 61.1%
  PT: 21.3 s
  Phos: 9.3 mg/dL
  Platelets: 728 10^3/mm^3
  RBC: 6.04 10^6/mm^3
  RDW: 14.3%
  Reticulocytes: 6.4%
  Reticulocytes absolute: 373.3 10^3/mm^3
  T-Bil: 0.10 mg/dL
  TP: 3.7 g/dL
  Triglycerides: 193 mg/dL
  Urea N: 28 mg/dL
  WBC: 13.70 10^3/mm^3
Male rats, 20 mg/kg, adverse
  microscopic findings, liver: minimal to moderate liver necrosis
rats
  LOAEL: 20 mg/kg
rats, once daily i.v. infusion 5 and 10 mg/kg/day, temporary, resolved in recovery
  clinical signs: non-adverse, treatment-related clinical signs
rats, single i.v. 20 mg/kg, Day 1
  acute, treatment-related mortality: 5 out of 12

— patent US20240108702A1, “Use Of Naturally Occurring Cyclic Peptides For Treatment Of SARS-COV-2 Infection” (The University of Southern California, priority 2021, published 2024)
